Laboratory results from patent publication US20120122840A1, “COMPOUNDS AND THERAPEUTIC USES THEREOF” (Myrexis, Inc., priority 2009, published 2012).
pIC50: −log10 of the molar value.

Assays:
[1] = system: HCT116 colon cancer cell line; test: HCT116 cytotoxicity assay (WST-1, 72 hours); type: cell-based; conditions: Homo sapiens, HCT-116, read-out: IC50 (concentration resulting in a 50% reduction in cell viability), HCT116 cells
Description: The compounds of the invention were tested in the following cytotoxicity assay to detect anti-cancer activity. This assay determined viability of various cell lines, when treated with a test compound, by determining the metabolic activity of proliferating cells using the tetrazolium salt WST. While assays conducted with HCT116 colon cancer cell line cells were generally used to compare the relative efficacy of the compounds being tested, OVCAR8 and NCI/ADR-Res cell lines were also used according to the same procedure.
MATERIALS: • A. 10% FBS/L-glutamine/NEAA/HEPES/Na-Pyruvate/RPMI, phenol-free; • B. HCT116, OVCAR8 or NCI/ADR-Res cell lines (new vial thawed every 8-10 weeks); • C. Test compounds, typically 50 mM stocks diluted in DMSO; • D. Clear, flat, TC-surface bottomed 96-well microplates (Corning #3595); • E. WST-1: Dojindo, W201 (powder).
METHODS: • 1. […]
• b) Without removing culture medium, 0.4 μl of a 250× concentrated solution of test compound in growth media was added to HCT116, OVCAR8 or NCI/ADR-Res plates. Plates were returned to incubator and left to incubate for 72 hours. • c) 10 μL of prepared WST-1 was added to treated cells and allowed to incubate at 37° C. for 90 minutes. • d) Absorbances at 490 and 650 nm were read and viability of treated cells relative to DMSO control was determined.

Aurora A = biological target: T1, Aurora A (Homo sapiens, UniProt O14965); test: In vitro binding assays
T1 sequence (O14965 1-403): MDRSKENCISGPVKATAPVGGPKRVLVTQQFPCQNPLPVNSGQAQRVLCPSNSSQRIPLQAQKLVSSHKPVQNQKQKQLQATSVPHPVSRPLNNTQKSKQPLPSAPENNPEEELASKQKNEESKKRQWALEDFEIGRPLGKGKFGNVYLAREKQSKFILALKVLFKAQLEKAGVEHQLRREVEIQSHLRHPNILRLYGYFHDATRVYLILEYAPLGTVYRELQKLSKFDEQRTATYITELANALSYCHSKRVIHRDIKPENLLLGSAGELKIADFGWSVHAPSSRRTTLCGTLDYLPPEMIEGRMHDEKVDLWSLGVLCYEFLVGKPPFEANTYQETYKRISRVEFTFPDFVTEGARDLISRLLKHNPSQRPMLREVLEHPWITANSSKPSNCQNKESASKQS

JNK = JNK (Homo sapiens, UniProt P45983); test: In vitro binding assays
Sequence of JNK (P45983 whole entry): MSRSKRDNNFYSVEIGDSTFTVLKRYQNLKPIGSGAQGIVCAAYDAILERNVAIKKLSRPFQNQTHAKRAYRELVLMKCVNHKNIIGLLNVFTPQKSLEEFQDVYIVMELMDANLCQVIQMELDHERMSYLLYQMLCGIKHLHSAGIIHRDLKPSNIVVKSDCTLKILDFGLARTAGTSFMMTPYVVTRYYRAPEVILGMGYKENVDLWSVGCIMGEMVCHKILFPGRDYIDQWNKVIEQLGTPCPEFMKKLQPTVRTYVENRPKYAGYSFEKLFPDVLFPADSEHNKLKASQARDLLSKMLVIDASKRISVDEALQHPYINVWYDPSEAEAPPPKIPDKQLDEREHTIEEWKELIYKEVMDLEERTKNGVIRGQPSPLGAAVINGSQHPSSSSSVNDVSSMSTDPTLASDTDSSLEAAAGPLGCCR

FER = FER (Homo sapiens, UniProt P16591); test: In vitro binding assays
Sequence of FER (P16591 whole entry, species assumed): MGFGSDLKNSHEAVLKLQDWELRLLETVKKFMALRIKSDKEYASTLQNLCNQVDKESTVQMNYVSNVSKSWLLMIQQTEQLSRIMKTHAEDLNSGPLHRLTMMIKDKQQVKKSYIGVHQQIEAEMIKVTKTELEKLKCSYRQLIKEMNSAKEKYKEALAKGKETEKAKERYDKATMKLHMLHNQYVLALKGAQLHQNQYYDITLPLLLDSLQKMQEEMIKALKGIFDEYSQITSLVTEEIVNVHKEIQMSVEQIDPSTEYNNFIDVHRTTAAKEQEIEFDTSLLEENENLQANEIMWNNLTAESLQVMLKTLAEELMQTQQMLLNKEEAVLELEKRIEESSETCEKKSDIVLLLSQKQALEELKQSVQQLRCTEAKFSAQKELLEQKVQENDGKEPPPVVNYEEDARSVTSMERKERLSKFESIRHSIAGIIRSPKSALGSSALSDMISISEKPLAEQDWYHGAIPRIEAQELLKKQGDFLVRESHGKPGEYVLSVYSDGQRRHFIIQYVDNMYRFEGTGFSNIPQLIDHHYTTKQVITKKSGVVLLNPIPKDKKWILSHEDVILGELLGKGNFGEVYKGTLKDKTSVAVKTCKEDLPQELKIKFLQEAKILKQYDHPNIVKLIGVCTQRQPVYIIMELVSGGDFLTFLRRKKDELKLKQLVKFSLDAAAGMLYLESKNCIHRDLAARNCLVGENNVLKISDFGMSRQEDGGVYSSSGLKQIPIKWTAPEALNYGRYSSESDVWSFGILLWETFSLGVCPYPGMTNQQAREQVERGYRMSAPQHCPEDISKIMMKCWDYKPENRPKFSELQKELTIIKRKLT

JAK1 = biological target: T2, JAK1 (Homo sapiens, UniProt P23458); test: In vitro binding assays
T2 construct: Cellular proteins were prepared by mild sonication in lysis buffer; endogenous in cells
T2 sequence (P23458 whole entry, species assumed): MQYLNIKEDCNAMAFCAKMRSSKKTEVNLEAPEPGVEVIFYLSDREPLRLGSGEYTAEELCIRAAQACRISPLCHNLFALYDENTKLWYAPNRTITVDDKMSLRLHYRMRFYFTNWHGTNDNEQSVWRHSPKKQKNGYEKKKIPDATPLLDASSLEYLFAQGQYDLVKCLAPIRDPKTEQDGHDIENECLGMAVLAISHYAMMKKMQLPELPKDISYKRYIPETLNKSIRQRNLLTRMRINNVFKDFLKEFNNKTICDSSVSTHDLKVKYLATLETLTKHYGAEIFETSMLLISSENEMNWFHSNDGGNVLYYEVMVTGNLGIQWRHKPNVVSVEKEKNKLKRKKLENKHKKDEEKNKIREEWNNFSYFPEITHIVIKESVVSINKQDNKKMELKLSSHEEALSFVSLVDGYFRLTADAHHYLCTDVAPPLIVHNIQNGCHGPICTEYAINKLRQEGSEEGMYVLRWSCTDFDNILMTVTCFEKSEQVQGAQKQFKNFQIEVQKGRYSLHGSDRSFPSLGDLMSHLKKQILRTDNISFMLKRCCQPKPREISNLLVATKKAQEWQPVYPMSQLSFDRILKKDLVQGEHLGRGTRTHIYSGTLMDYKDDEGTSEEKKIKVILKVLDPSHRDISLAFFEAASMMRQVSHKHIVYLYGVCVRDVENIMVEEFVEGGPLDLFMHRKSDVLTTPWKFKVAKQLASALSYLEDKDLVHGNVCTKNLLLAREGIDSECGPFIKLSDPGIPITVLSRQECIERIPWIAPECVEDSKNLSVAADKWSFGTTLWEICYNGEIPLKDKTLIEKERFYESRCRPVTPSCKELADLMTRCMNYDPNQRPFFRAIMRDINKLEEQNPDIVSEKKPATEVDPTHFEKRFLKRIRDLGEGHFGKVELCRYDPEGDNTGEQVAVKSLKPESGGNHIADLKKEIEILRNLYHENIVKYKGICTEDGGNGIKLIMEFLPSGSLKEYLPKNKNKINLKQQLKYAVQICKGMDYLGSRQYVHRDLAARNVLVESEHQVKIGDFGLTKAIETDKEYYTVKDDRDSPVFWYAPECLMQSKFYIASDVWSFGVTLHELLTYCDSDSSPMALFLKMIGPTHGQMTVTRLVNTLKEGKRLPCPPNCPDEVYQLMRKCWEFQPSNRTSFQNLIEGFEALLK

TTK = biological target: T3, TTK (Homo sapiens, UniProt P33981); test: TTK inhibition assay ([γ-33P]ATP transfer to phosphorylated MBP); type: biochemical; design: A. Recombinant TTK enzyme; conditions: read-out: inhibition of the protein kinase activity of TTK, IC50
T3 sequence (P33981 1-857): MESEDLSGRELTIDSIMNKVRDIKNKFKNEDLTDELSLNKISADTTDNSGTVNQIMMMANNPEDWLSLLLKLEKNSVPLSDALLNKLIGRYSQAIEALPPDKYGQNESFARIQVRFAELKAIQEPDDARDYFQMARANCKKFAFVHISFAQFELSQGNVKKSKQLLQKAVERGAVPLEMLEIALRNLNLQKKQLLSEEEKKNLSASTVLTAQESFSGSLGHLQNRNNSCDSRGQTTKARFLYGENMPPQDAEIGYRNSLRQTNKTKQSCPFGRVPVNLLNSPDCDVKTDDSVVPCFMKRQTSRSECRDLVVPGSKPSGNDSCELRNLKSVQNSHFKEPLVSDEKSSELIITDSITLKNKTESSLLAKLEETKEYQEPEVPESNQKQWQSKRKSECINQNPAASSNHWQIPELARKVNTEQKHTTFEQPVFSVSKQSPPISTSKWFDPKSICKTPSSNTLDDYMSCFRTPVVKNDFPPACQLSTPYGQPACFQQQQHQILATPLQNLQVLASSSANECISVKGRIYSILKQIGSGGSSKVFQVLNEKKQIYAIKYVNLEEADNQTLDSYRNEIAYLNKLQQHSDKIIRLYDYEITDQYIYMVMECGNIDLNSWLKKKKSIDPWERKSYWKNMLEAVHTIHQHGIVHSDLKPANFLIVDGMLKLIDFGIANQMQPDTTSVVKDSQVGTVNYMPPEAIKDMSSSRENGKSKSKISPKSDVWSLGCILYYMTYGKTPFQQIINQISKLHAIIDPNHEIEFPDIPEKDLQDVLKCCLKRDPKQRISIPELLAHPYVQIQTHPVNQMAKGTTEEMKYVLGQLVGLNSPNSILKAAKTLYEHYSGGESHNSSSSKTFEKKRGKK
Description: The compounds of the invention were also tested in the following assay to determine TTK-inhibitory activity. This assay measures transfer of radioactive phosphate from ATP to a protein substrate in the presence or absence of a test compound.
MATERIALS: • A. Recombinant TTK enzyme; • B. Phosphorylated myelin basic protein (MBP); • C. [γ-^33P]ATP: 1 mCi/100 μL; • D. Positive Control: a proprietary compound known to have […] in this assay.
Final concentrations of reaction mixture components (50 μl total volume): 50 mM Tris-HCl, pH 7.5; 0.01% Triton X-100; 10 mM MgCl2; 25 ng TTK (˜4 nM); 5 μM Phosphorylated MBP; 40 μM ATP (1 μCi/well, adjusted ATP specific activity according to strength of radiolabeled ATP).
Mixes were assembled in the wells of a 96-well polypropylene plate as follows: 1 μL 50× compound to be tested; 39 μL 1.282× Reaction Mix; 10 μL 5×ATP Mix.
The following reaction/assay steps were then performed: • 1. Mix thoroughly and incubate at room temperature for 45 minutes; • 2. Add 70 μL/well, except in background wells, of 3% phosphoric acid to terminate reaction, and transfer 100 μL to P81 filter plate; • 3. Wash with 1% phosphoric acid, then dry the P81 filter plate completely; • 4. Add 100 μL/well MicroSint-20 (PerkinElmer #6013621) and seal; • 5.

**Q.** Which results are given for `NCCCOc1ccc(Nc2nc(NC3CCCCC3)c3nc[nH]c3n2)cc1` [N2-[4-(3-aminopropoxy)phenyl]-N-6-cyclohexyl-9H-purine-2,6-diamine]?
**A.** pIC50 [1]: 5.92; pIC50 (Aurora A): 6.38; pIC50 (JNK): 7.24; pIC50 (FER): 7.82; pIC50 (JAK1): 6.49; pIC50 (TTK): 8.10
